# Assay results taken from patent US20120164104A1, “Composition and Methods of Treating Viral Infections and Viral Induced Tumors” (Chimerix, Inc., priority 2009, published 2012).
# System: JCV Mad-4
# Test: JCV VP1 late gene expression in COS-7 cells (immunofluorescence)
# Assay type: cell-based
# Conditions: 7 d.p.i.
# From the text: FIG. 16 illustrates the effect of increasing concentrations of CMX001 on expression of JCV proteins. Indirect immunofluorescence of JCV-infected COS-7 cells treated with indicated concentrations of CMX001, fixed 7 d.p.i. and stained with rabbit anti-VP1 serum (red) for visualization of the late capsid protein VP1 and with Höchst 33342 dye to show DNA (blue). The merged pictures are shown in the right panel.
# Cells were fixed with 4% p-formaldehyde (PFA) in phosphate-buffered saline, pH6.8 (PBS) at room temperature for 20 min and permeabilized with 0.2% Triton X-100 in PBS at room temperature for 10 min. After washing twice with PBS at room temperature for 5 min, PFA was quenched with 0.5 M NH4Cl in PBS at room temperature for 7 min followed washing twice with PBS at room temperature for 5 min. Blocking of unspecific binding sites was done with 3% milk in PBS at 37° C. for 15 min. Primary antibody (rabbit anti-VP1 1:300 in 3% milk PBS) was incubated at 37° C. for 45-60 min. Cells were washed twice with PBS on a shaker at room temperature for 5 min. Secondary antibody (chicken anti-rabbit Cy3 1:2000) and 5 μg/ml Höchst 33342 dye to stain DNA was given to the cells then incubated at 37° C. for 45-60 min. Cells were washed twice with PBS as before. Coverslips were mounted in NPropylgallat. […]
smiles,measurement,setting,value
CCCCCCCCCCCCCCCCOCCCOP(=O)(O)CO[C@H](CO)Cn1ccc(N)nc1=O [CMX001],JCV VP1 signal by immunofluorescence,CMX001 1.25 μM,significant reduction
same,JCV VP1 positive cells by immunofluorescence,CMX001 5 μM,essentially no VP1 positive cells could be observed
